Measurements reported in PubChem BioAssay AID248 (DTP/NCI, 2004).
“And” between values parts separate entries of the source, which are not always exact repeats. Identical values can stand only once. Toxic doses and inconclusive results are not listed. No stated cut-off is given here; in the data, active means T/C of 150% or more; inactive means T/C below 125%.

System: L1210 leukemia ip in BDF1 mice, survival T/C
Assay: NCI In Vivo Anticancer Drug Screen. Data for tumor model L1210 Leukemia (intraperitoneal) in B6D2F1 (BDF1) mice
Details: endpoint: mean survival time, higher = longer survival
In short: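 Survival endpoint. Drug-treated group vs vehicle group, expressed as T divided by C. Tumor passaged by transplantation.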

[1] = dose: 50.0 mg/kg/injection, schedule: Q01DX009 (ip), vehicle: saline with Tween-80
[2] = dose: 100.0 mg/kg/injection, schedule: Q01DX001 (ip), vehicle: saline with Tween-80
[3] = dose: 100.0 mg/kg/injection, schedule: Q01DX009 (ip), vehicle: saline with Tween-80
[4] = dose: 100.0 mg/kg/injection, schedule: Q04DX003 (ip), vehicle: saline with Tween-80
[5] = dose: 200.0 mg/kg/injection, schedule: Q01DX001 (ip), vehicle: saline with Tween-80
[6] = dose: 200.0 mg/kg/injection, schedule: Q04DX003 (ip), vehicle: saline with Tween-80
[7] = dose: 200.0 mg/kg/injection, schedule: Q01DX009 (ip), vehicle: saline with Tween-80
[8] = dose: 25.0 mg/kg/injection, schedule: Q01DX009 (ip), vehicle: Klucel (hydroxypropylcellulose) (HPC)
[9] = dose: 50.0 mg/kg/injection, schedule: Q01DX009 (ip), vehicle: Klucel (hydroxypropylcellulose) (HPC)
[10] = dose: 100.0 mg/kg/injection, schedule: Q01DX009 (ip), vehicle: Klucel (hydroxypropylcellulose) (HPC)
[11] = dose: 100.0 mg/kg/injection, schedule: Q01DX001 (ip), vehicle: Klucel (hydroxypropylcellulose) (HPC)
[12] = dose: 200.0 mg/kg/injection, schedule: Q01DX001 (ip), vehicle: Klucel (hydroxypropylcellulose) (HPC)
[13] = dose: 400.0 mg/kg/injection, schedule: Q01DX001 (ip), vehicle: Klucel (hydroxypropylcellulose) (HPC)
[14] = dose: 100.0 mg/kg/injection, schedule: Q01DX009 (ip), vehicle: saline
[15] = dose: 200.0 mg/kg/injection, schedule: Q01DX009 (ip), vehicle: saline
[16] = dose: 400.0 mg/kg/injection, schedule: Q01DX009 (ip), vehicle: saline
[17] = dose: 400.0 mg/kg/injection, schedule: Q01DX001 (ip), vehicle: saline
[18] = dose: 25.0 mg/kg/injection, schedule: Q01DX009 (ip), vehicle: saline with Tween-80

Measured: T/C

c1ccc(C(Nc2ccnc3nc[nH]c23)c2ccccc2)cc1
inactive: dose: 25.0 mg/kg/injection, schedule: Q01DX001 (ip), vehicle: saline with Tween-80 107 % of control | dose: 50.0 mg/kg/injection, schedule: Q01DX001 (ip), vehicle: saline with Tween-80 102 % of control | [1] 96 % of control | dose: 50.0 mg/kg/injection, schedule: Q04DX003 (ip), vehicle: saline with Tween-80 95 % of control | dose: 75.0 mg/kg/injection, schedule: Q01DX001 (ip), vehicle: saline with Tween-80 101 % of control | [2] 94 % of control | [3] 107 % of control | [4] 91 % of control | [5] 93 % of control | [6] 92 % of control

S=c1[nH]sc(=S)[nH]1
inactive: [3] 100 % of control | [7] 98 % of control

CNc1ccc(C(=O)O)c(Cl)c1
inactive: dose: 75.0 mg/kg/injection, schedule: Q01DX001 (ip), vehicle: saline 95 % of control | dose: 75.0 mg/kg/injection, schedule: Q04DX003 (ip), vehicle: saline 97 % of control | dose: 150.0 mg/kg/injection, schedule: Q01DX001 (ip), vehicle: saline 98 % of control | dose: 150.0 mg/kg/injection, schedule: Q04DX003 (ip), vehicle: saline 111 % of control | dose: 300.0 mg/kg/injection, schedule: Q01DX001 (ip), vehicle: saline 93 % of control | dose: 300.0 mg/kg/injection, schedule: Q04DX003 (ip), vehicle: saline 103 % of control

CCO/C=C1\SC(=S)N(c2cccc(O)c2)C1=O
inactive: [8] 86 % of control | [9] 113 % of control | [10] 93 % of control

OCc1ccccc1Cn1ccnc1
inactive: [11] 111 % of control | [10] 97 % of control and 105 % of control | dose: 100.0 mg/kg/injection, schedule: Q04DX002 (ip), vehicle: Klucel (hydroxypropylcellulose) (HPC) 102 % of control and 103 % of control | dose: 100.0 mg/kg/injection, schedule: Q04DX003 (ip), vehicle: Klucel (hydroxypropylcellulose) (HPC) 105 % of control | [12] 103 % of control | dose: 200.0 mg/kg/injection, schedule: Q01DX009 (ip), vehicle: Klucel (hydroxypropylcellulose) (HPC) 94 % of control and 87 % of control | dose: 200.0 mg/kg/injection, schedule: Q04DX002 (ip), vehicle: Klucel (hydroxypropylcellulose) (HPC) 97 % of control and 88 % of control | dose: 200.0 mg/kg/injection, schedule: Q04DX003 (ip), vehicle: Klucel (hydroxypropylcellulose) (HPC) 111 % of control | [13] 99 % of control | dose: 400.0 mg/kg/injection, schedule: Q01DX009 (ip), vehicle: Klucel (hydroxypropylcellulose) (HPC) 94 % of control and 96 % of control | dose: 400.0 mg/kg/injection, schedule: Q04DX002 (ip), vehicle: Klucel (hydroxypropylcellulose) (HPC) 97 % of control and 100 % of control | dose: 400.0 mg/kg/injection, schedule: Q04DX003 (ip), vehicle: Klucel (hydroxypropylcellulose) (HPC) 110 % of control

O=C(O)CCCc1ccc(Cl)cc1
inactive: dose: 50.0 mg/kg/injection, schedule: Q01DX009 (ip), vehicle: saline 113 % of control | [14] 105 % of control | [15] 96 % of control

O=C1OC(c2ccccc2)=NC1c1ccccc1 (stereo not drawn)
inactive: [14] 95 % of control | dose: 100.0 mg/kg/injection, schedule: Q04DX003 (ip), vehicle: carboxymethylcellulose (CMC) 101 % of control | [15] 97 % of control | dose: 200.0 mg/kg/injection, schedule: Q04DX003 (ip), vehicle: carboxymethylcellulose (CMC) 95 % of control | [16] 97 % of control | dose: 400.0 mg/kg/injection, schedule: Q04DX003 (ip), vehicle: carboxymethylcellulose (CMC) 97 % of control

O=C1c2ccccc2C(=O)c2c(O)c3c(c(O)c21)CCCC3OC1OC(CO)C(O)C(O)C1O (stereo not drawn)
inactive: [17] 91 % of control

CC1(C)CC(=O)CC(C)(C)ON1
inactive: dose: 100.0 mg/kg/injection, schedule: Q04DX002 (ip), vehicle: saline with Tween-80 99 % of control | dose: 200.0 mg/kg/injection, schedule: Q04DX002 (ip), vehicle: saline with Tween-80 99 % of control | dose: 400.0 mg/kg/injection, schedule: Q04DX002 (ip), vehicle: saline with Tween-80 99 % of control

CN(Cc1ccccc1)C(=O)COc1ccc(Cl)c(Cl)c1
inactive: [11] 106 % of control | [12] 96 % of control | [13] 102 % of control

O=c1ccc2cc(OC3OC(CO)C(O)C(O)C3O)c(O)cc2o1 (stereo not drawn)
inactive: dose: 62.5 mg/kg/injection, schedule: Q01DX015 (ip), vehicle: carboxymethylcellulose (CMC) 95 % of control | dose: 125.0 mg/kg/injection, schedule: Q01DX015 (ip), vehicle: carboxymethylcellulose (CMC) 105 % of control | dose: 250.0 mg/kg/injection, schedule: Q01DX015 (ip), vehicle: carboxymethylcellulose (CMC) 100 % of control | dose: 400.0 mg/kg/injection, schedule: Q01DX001 (ip), vehicle: carboxymethylcellulose (CMC) 111 % of control | dose: 600.0 mg/kg/injection, schedule: Q01DX001 (ip), vehicle: carboxymethylcellulose (CMC) 90 % of control | dose: 800.0 mg/kg/injection, schedule: Q01DX001 (ip), vehicle: carboxymethylcellulose (CMC) 92 % of control | dose: 1000.0 mg/kg/injection, schedule: Q01DX001 (ip), vehicle: carboxymethylcellulose (CMC) 101 % of control

CNC(=O)NNC(=O)CNC(=O)Nc1cccc([N+](=O)[O-])c1
inactive: [18] 91 % of control | [1] 94 % of control

O=c1cc(C(F)(F)F)[nH]c2ccc(F)cc12
inactive: dose: 5.0 mg/kg/injection, schedule: Q04DX003 (ip), vehicle: saline with Tween-80 102 % of control | dose: 10.0 mg/kg/injection, schedule: Q04DX003 (ip), vehicle: saline with Tween-80 90 % of control | dose: 20.0 mg/kg/injection, schedule: Q04DX003 (ip), vehicle: saline with Tween-80 97 % of control

CC1(C)CCC2CC(=O)OC2(C)C1 (stereo not drawn)
inactive: dose: 100.0 mg/kg/injection, schedule: Q01DX001 (ip), vehicle: saline 109 % of control | [14] 100 % of control | dose: 200.0 mg/kg/injection, schedule: Q01DX001 (ip), vehicle: saline 95 % of control | [15] 94 % of control | [17] 92 % of control | [16] 98 % of control

CC(C)=CCC(CCN1CCOCC1)(C(N)=O)c1cccc2ccccc12 (stereo not drawn)
inactive: dose: 6.25 mg/kg/injection, schedule: Q04DX003 (ip), vehicle: Klucel (hydroxypropylcellulose) (HPC) 104 % of control | dose: 12.5 mg/kg/injection, schedule: Q01DX009 (ip), vehicle: Klucel (hydroxypropylcellulose) (HPC) 96 % of control | dose: 12.5 mg/kg/injection, schedule: Q04DX003 (ip), vehicle: Klucel (hydroxypropylcellulose) (HPC) 94 % of control | [8] 104 % of control | dose: 25.0 mg/kg/injection, schedule: Q04DX003 (ip), vehicle: Klucel (hydroxypropylcellulose) (HPC) 98 % of control | [9] 90 % of control

CCc1ccccc1NC(=O)Sc1ccccc1O
inactive: dose: 6.25 mg/kg/injection, schedule: Q01DX009 (ip), vehicle: saline with Tween-80 105 % of control | dose: 12.5 mg/kg/injection, schedule: Q01DX009 (ip), vehicle: saline with Tween-80 105 % of control | [18] 93 % of control and 102 % of control

CC(=O)/C=C(/C(=O)c1ccccc1)c1ccccc1
inactive: [2] 93 % of control | [5] 98 % of control | dose: 400.0 mg/kg/injection, schedule: Q01DX001 (ip), vehicle: saline with Tween-80 97 % of control

CCC(=O)OCC(C)([N+](=O)[O-])[N+](=O)[O-]
inactive: [3] 106 % of control | [4] 97 % of control | [7] 97 % of control | [6] 97 % of control | dose: 400.0 mg/kg/injection, schedule: Q01DX009 (ip), vehicle: saline with Tween-80 101 % of control | dose: 400.0 mg/kg/injection, schedule: Q04DX003 (ip), vehicle: saline with Tween-80 109 % of control

COC(=O)Nc1c(C)cc(C)cc1C
inactive: dose: 100.0 mg/kg/injection, schedule: Q04DX003 (ip), vehicle: saline 94 % of control | dose: 200.0 mg/kg/injection, schedule: Q04DX003 (ip), vehicle: saline 94 % of control | dose: 400.0 mg/kg/injection, schedule: Q04DX003 (ip), vehicle: saline 98 % of control
